# Assay results published in ChEMBL document CHEMBL3779887, “Robenidine Analogues as Gram-Positive Antibacterial Agents” (J Med Chem, 2016).
# The source made the active and inactive calls. No cut-off for these calls is given here.
# How the values were obtained:
# Escherichia coli [1] = test: Antibacterial activity against Escherichia coli ATCC 25922 after 20 to 24 hrs; format: functional
# Escherichia coli [2] = test: Antibacterial activity against Escherichia coli ATCC 25922 after 20 to 24 hrs in presence of polymyxin B nonapeptide; format: functional
# Pseudomonas aeruginosa [3] = test: Antibacterial activity against Pseudomonas aeruginosa ATCC 27853 after 20 to 24 hrs in presence of polymyxin B nonapeptide; format: functional
# Pseudomonas aeruginosa [4] = test: Antibacterial activity against Pseudomonas aeruginosa ATCC 27853 after 20 to 24 hrs; format: functional
# Staphylococcus aureus [5] = test: Bactericidal activity against methicillin-sensitive Staphylococcus aureus ATCC 25923 after 24 and 48 hrs; format: functional
# Staphylococcus aureus [6] = test: Bactericidal activity against methicillin-sensitive Staphylococcus aureus ATCC 6538 after 24 and 48 hrs; format: functional
# Staphylococcus aureus [7] = test: Bactericidal activity against methicillin-sensitive Staphylococcus aureus ATCC 29213 after 24 and 48 hrs; format: functional
# Staphylococcus aureus [8] = test: Antibacterial activity against methicillin-sensitive Staphylococcus aureus ATCC 6538 after 20 to 24 hrs; format: functional
# Staphylococcus aureus [9] = test: Antibacterial activity against methicillin-sensitive Staphylococcus aureus ATCC 25923 after 20 to 24 hrs; format: functional
# Staphylococcus aureus [10] = test: Antibacterial activity against methicillin-resistant Staphylococcus aureus after 20 to 24 hrs; format: functional
# Staphylococcus aureus [11] = test: Bactericidal activity against methicillin-sensitive Staphylococcus aureus ATCC 49775 after 24 and 48 hrs; format: functional
# Staphylococcus aureus [12] = test: Bactericidal activity against methicillin-resistant Staphylococcus aureus clinical isolate after 24 and 48 hrs; format: functional
# Staphylococcus aureus [13] = test: Antibacterial activity against methicillin-sensitive Staphylococcus aureus ATCC 49775 after 20 to 24 hrs; format: functional
# Enterococcus = test: Antibacterial activity against vancomycin-resistant Enterococcus after 20 to 24 hrs; format: functional
# Staphylococcus aureus [14] = test: Antibacterial activity against methicillin-sensitive Staphylococcus aureus ATCC 29213 after 20 to 24 hrs; format: functional
# Staphylococcus aureus [15] = test: Antibacterial activity against methicillin-resistant Staphylococcus aureus clinical isolate after 20 to 24 hrs; format: functional
# Staphylococcus aureus [16] = test: Antibacterial activity against methicillin-sensitive Staphylococcus aureus ATCC 29213 after 20 to 24 hrs in presence of 50% heat inactivated bovine serum
# [17] = Lipophilicity, logD of the compound at pH 7.4; format: physicochemical; conditions: buffer
# [18] = Intrinsic clearance in human liver microsomes assessed per mg of protein; format: ADME; conditions: read-out: CLH
# Staphylococcus aureus [19] = test: Bactericidal activity against […] Staphylococcus aureus clinical isolate USA300 assessed as log reduction in bacterial cell number at 2 times MIC after 8 hrs by time-kill curve analysis; format: functional
# Staphylococcus aureus [20] = test: Bactericidal activity against […] Staphylococcus aureus clinical isolate USA300 assessed as log reduction in bacterial cell number at 8 times MIC after 8 hrs by time-kill curve analysis; format: functional
# Staphylococcus aureus [21] = test: Bactericidal activity against methicillin-sensitive Staphylococcus aureus ATCC 29213 assessed as log reduction in bacterial cell number at 4 times MIC after 8 hrs by time-kill curve analysis; format: functional
# [22] = Solubility of the compound at pH 6.5; format: physicochemical; conditions: buffer
# [23] = Cytotoxicity against human HEL299 cells after 24 hrs by WST-1 based colorimetric assay; format: cell-based, HEL 299
# [24] = Selectivity index, ratio of GI50 for human HEL299 cells to MIC50 for methicillin-resistant Staphylococcus aureus clinical isolate; format: functional, HEL 299
# Staphylococcus aureus [25] = test: Ratio of MBC for methicillin-sensitive Staphylococcus aureus ATCC 49775 to MIC90 for methicillin-sensitive Staphylococcus aureus ATCC 49775; format: functional
# [26] = Selectivity index, ratio of GI50 for human HepG2 cells to MIC50 for methicillin-sensitive Staphylococcus aureus clinical isolate; format: functional
# Staphylococcus aureus [27] = test: Antibacterial activity against methicillin-sensitive Staphylococcus aureus ATCC 29213 after 20 to 24 hrs in presence of 50% heat inactivated bovine serum; remark: listed apart in the source
# [28] = Solubility of the compound at pH 2; format: physicochemical; conditions: buffer
# Staphylococcus aureus [29] = test: Bactericidal activity against methicillin-sensitive Staphylococcus aureus clinical isolate USA300 assessed as log reduction in bacterial cell number at MIC after 8 hrs by time-kill curve analysis; format: functional
# Staphylococcus aureus [30] = test: Bactericidal activity against […] Staphylococcus aureus clinical isolate USA300 assessed as log reduction in bacterial cell number at MIC after 24 hrs by time-kill curve analysis; format: functional, organism-based
# Staphylococcus aureus [31] = test: Antibacterial activity against methicillin-sensitive Staphylococcus aureus ATCC 49775 after 20 to 24 hrs in presence of 50% heat inactivated bovine serum; format: functional
# [32] = Half life of compound in mouse liver microsomes; format: ADME
# Staphylococcus aureus [33] = test: Bactericidal activity against […] Staphylococcus aureus clinical isolate USA300 assessed as log reduction in bacterial cell number at 8 times MIC after 24 hrs by time-kill curve analysis; format: functional, organism-based
# Staphylococcus aureus [34] = test: Bactericidal activity against methicillin-sensitive Staphylococcus aureus ATCC 29213 assessed as log reduction in bacterial cell number at MIC after 8 hrs by time-kill curve analysis; format: functional
# [35] = Half life of compound in human liver microsomes; format: ADME
# Staphylococcus aureus [36] = test: Antibacterial activity against methicillin-sensitive Staphylococcus aureus ATCC 29213 after 20 to 24 hrs in presence of 50% heat inactivated bovine serum; format: functional
# Staphylococcus aureus [37] = test: Bactericidal activity against methicillin-sensitive Staphylococcus aureus ATCC 29213 assessed as log reduction in bacterial cell number at 8 times MIC after 8 hrs by time-kill curve analysis; format: functional
# Staphylococcus aureus [38] = test: Bactericidal activity against […] Staphylococcus aureus clinical isolate USA300 assessed as log reduction in bacterial cell number at 2 times MIC after 24 hrs by time-kill curve analysis; format: functional, organism-based
# Staphylococcus aureus [39] = test: Bactericidal activity against Methicillin-sensitive Staphylococcus aureus ATCC 29213 assessed as log reduction in bacterial cell number at 2 times MIC after 24 hrs by time kill curve analysis; format: functional, organism-based
# [40] = Toxicity in sheep erythrocytes assessed as hemolysis at 600 uM after 30 mins; format: cell-based, Ovis aries; conditions: erythrocyte, 0.5 h
# Staphylococcus aureus [41] = test: Bactericidal activity against […] Staphylococcus aureus clinical isolate USA300 assessed as log reduction in bacterial cell number at 4 times MIC after 8 hrs by time-kill curve analysis; format: functional
# Staphylococcus aureus [42] = test: Ratio of MBC for methicillin-sensitive Staphylococcus aureus ATCC 25923 to MIC90 for methicillin-sensitive Staphylococcus aureus ATCC 25923; format: functional
# Staphylococcus aureus [43] = test: Ratio of MBC for methicillin-sensitive Staphylococcus aureus ATCC 6538 to MIC90 for methicillin-sensitive Staphylococcus aureus ATCC 6538; format: functional
# Staphylococcus aureus [44] = test: Bactericidal activity against methicillin-sensitive Staphylococcus aureus ATCC 29213 assessed as log reduction in bacterial cell number at 2 times MIC after 8 hrs by time-kill curve analysis; format: functional
# [45] = Lipophilicity, logD of the compound at pH 3; format: physicochemical; conditions: buffer
# [46] = Selectivity index, ratio of GI50 for human HepG2 cells to MIC50 for methicillin-resistant Staphylococcus aureus clinical isolate; format: functional
# Staphylococcus aureus [47] = test: Ratio of MBC for methicillin-sensitive Staphylococcus aureus ATCC 29213 to MIC90 for methicillin-sensitive Staphylococcus aureus ATCC 29213; format: functional
# [48] = Cytotoxicity against human HepG2 cells after 24 hrs by WST-1 based colorimetric assay; format: cell-based
# Staphylococcus aureus [49] = test: Bactericidal activity against […] Staphylococcus aureus clinical isolate USA300 assessed as log reduction in bacterial cell number at 4 times MIC after 24 hrs by time-kill curve analysis; format: functional, organism-based
# [50] = Selectivity index, ratio of GI50 for human HEL299 cells to MIC50 for methicillin-sensitive Staphylococcus aureus clinical isolate; format: functional, HEL 299
# Staphylococcus aureus [51] = test: Bactericidal activity against Methicillin-sensitive Staphylococcus aureus ATCC 29213 assessed as log reduction in bacterial cell number at 8 times MIC after 24 hrs by time-kill curve analysis; format: functional, organism-based
# Staphylococcus aureus [52] = test: Bactericidal activity against Methicillin-sensitive Staphylococcus aureus ATCC 29213 assessed as log reduction in bacterial cell number at MIC after 8 hrs by time kill curve analysis
# [53] = Intrinsic clearance in mouse liver microsomes assessed per mg of protein; format: ADME; conditions: read-out: CLH
# Staphylococcus aureus [54] = test: Antibacterial activity against Staphylococcus aureus ATCC 29213 after 20 to 24 hrs in presence of 2% heat inactivated bovine serum; format: functional
# Staphylococcus aureus [55] = test: Bactericidal activity against Methicillin-sensitive Staphylococcus aureus ATCC 29213 assessed as log reduction in bacterial cell number at 4 times MIC after 24 hrs by time kill curve analysis; format: functional, organism-based
# Staphylococcus aureus [56] = test: Antibacterial activity against methicillin-sensitive Staphylococcus aureus ATCC 6538 after 20 to 24 hrs in presence of 50% heat inactivated bovine serum; format: functional
compound,measurement,setting,value
CC(C)/N=c1\cc2n(-c3ccc(Cl)cc3)c3ccccc3nc-2cc1Nc1ccc(Cl)cc1 [CLOFAZIMINE],MIC90,Escherichia coli [1],> 250 µM
same,MIC90,Escherichia coli [2],4.2 µM
same,MIC90,Pseudomonas aeruginosa [3],8.4 µM
same,MIC90,Pseudomonas aeruginosa [4],> 250 µM
CC1(C)S[C@@H]2[C@H](NC(=O)[C@H](N)c3ccccc3)C(=O)N2[C@H]1C(=O)O [AMPICILLIN],MBC,Staphylococcus aureus [5],2 µM
same,MBC,Staphylococcus aureus [6],2 µM
same,MBC,Staphylococcus aureus [7],2 µM
same,MIC,Escherichia coli [1],45.8 µM
same,MIC90,Staphylococcus aureus [8],0.3 µM
same,MIC90,Staphylococcus aureus [9],0.3 µM
same,MIC,Staphylococcus aureus [10],183 µM
same,MIC,Pseudomonas aeruginosa [4],366 µM
same,MBC,Staphylococcus aureus [11],2 µM
same,MBC,Staphylococcus aureus [12],2 µM
same,MIC90,Staphylococcus aureus [13],0.3 µM
same,MIC,Enterococcus,11.5 µM
same,MIC90,Staphylococcus aureus [14],0.3 µM
same,MIC90,Staphylococcus aureus [15],0.3 µM
CC(C)(C)c1ccc(/C=N/NC(=N)N/N=C/c2ccc(C(C)(C)C)cc2)cc1,MBC,Staphylococcus aureus [5],4.8 µM
same,MIC90,Staphylococcus aureus [16],> 250 µM
same,MBC,Staphylococcus aureus [6],4.8 µM
same,logD,[17],> 5.3
same,MBC,Staphylococcus aureus [7],4.8 µM
same,microsomal CLint,[18],89 µL/min/mg
same,Activity,Staphylococcus aureus [19],>=4 log10CFU/ml
same,Activity,Staphylococcus aureus [20],>=4 log10CFU/ml
same,MIC,Escherichia coli [1],> 400 µM
same,MIC90,Staphylococcus aureus [8],4.8 µM
same,Activity,Staphylococcus aureus [21],>=4 log10CFU/ml
same,MIC90,Staphylococcus aureus [9],4.8 µM
same,solubility,[22],< 1.6 µg/mL
same,GI50 at 24 h,[23],28.8 µM
same,Selectivity Index,[24],2
same,Ratio,Staphylococcus aureus [25],1
same,Selectivity Index,[26],2
same,MIC90,Staphylococcus aureus [27],> 250 µM
same,solubility,[28],< 1.6 µg/mL
same,Activity,Staphylococcus aureus [29],>=4 log10CFU/ml
same,MIC,Staphylococcus aureus [10],24.2 µM
same,Activity,Staphylococcus aureus [30],inactive
same,MIC90,Staphylococcus aureus [31],> 250 µM
same,MIC90,Escherichia coli [2],> 250 µM
same,half-life,[32],25 min
same,MIC90,Pseudomonas aeruginosa [3],> 250 µM
same,Activity,Staphylococcus aureus [33],inactive
same,Activity,Staphylococcus aureus [34],>=4 log10CFU/ml
same,half-life,[35],20 min
same,MIC90,Staphylococcus aureus [36],> 250 µM
same,MIC,Pseudomonas aeruginosa [4],> 400 µM
same,MBC,Staphylococcus aureus [11],4.8 µM
same,Activity,Staphylococcus aureus [37],>=4 log10CFU/ml
same,Activity,Staphylococcus aureus [38],inactive
same,Activity,Staphylococcus aureus [39],inactive
same,MBC,Staphylococcus aureus [12],4.8 µM
same,MIC90,Staphylococcus aureus [13],4.8 µM
same,Activity,[40],Non-toxic
same,Activity,Staphylococcus aureus [41],>=4 log10CFU/ml
same,Ratio,Staphylococcus aureus [42],1
same,Ratio,Staphylococcus aureus [43],1
same,MIC,Enterococcus,29 µM
same,Activity,Staphylococcus aureus [44],>=4 log10CFU/ml
same,MIC90,Staphylococcus aureus [14],4.8 µM
same,logD,[45],4.9
same,MIC90,Staphylococcus aureus [15],4.8 µM
same,Selectivity Index,[46],2
same,Ratio,Staphylococcus aureus [47],1
same,GI50 at 24 h,[48],26.3 µM
same,Activity,Staphylococcus aureus [49],inactive
same,Selectivity Index,[50],2
same,Activity,Staphylococcus aureus [51],inactive
same,Activity,Staphylococcus aureus [52],inactive
same,microsomal CLint,[53],70 µL/min/mg
same,MIC90,Staphylococcus aureus [54],38.6 µM
same,Activity,Staphylococcus aureus [55],inactive
same,MIC90,Staphylococcus aureus [56],> 250 µM
COc1ccccc1/C=N/NC(=N)N/N=C/c1ccccc1OC,MIC,Escherichia coli [1],> 400 µM
same,MIC,Staphylococcus aureus [10],> 400 µM
same,MIC,Pseudomonas aeruginosa [4],> 400 µM
same,MIC,Enterococcus,358 µM
N=C(N/N=C/c1ccc(F)cc1)N/N=C/c1ccc(F)cc1,MIC,Escherichia coli [1],> 400 µM
same,MIC,Staphylococcus aureus [10],47 µM
same,MIC,Pseudomonas aeruginosa [4],> 400 µM
same,MIC,Enterococcus,23.7 µM
Cc1cccc(/C=N/NC(=N)N/N=C/c2cccc(C)c2O)c1O,MIC,Escherichia coli [1],> 400 µM
same,MIC,Staphylococcus aureus [10],> 400 µM
same,MIC,Pseudomonas aeruginosa [4],> 400 µM
same,MIC,Enterococcus,> 400 µM
N=C(N/N=C/c1ccc(Cl)cc1F)N/N=C/c1ccc(Cl)cc1F,MIC,Escherichia coli [1],> 400 µM
same,MIC,Staphylococcus aureus [10],6.1 µM
same,MIC,Pseudomonas aeruginosa [4],> 400 µM
same,MIC,Enterococcus,7.4 µM
COc1ccc(/C=N/NC(=N)N/N=C/c2ccc(OC)c(O)c2)cc1O,MIC,Escherichia coli [1],> 400 µM
same,MIC,Staphylococcus aureus [10],> 400 µM
same,MIC,Pseudomonas aeruginosa [4],> 400 µM
same,MIC,Enterococcus,> 400 µM
COc1cc(/C=N/NC(=N)N/N=C/c2ccc(O)c(OC)c2)ccc1O,MIC,Escherichia coli [1],> 400 µM
same,MIC,Staphylococcus aureus [10],244 µM
same,MIC,Pseudomonas aeruginosa [4],> 400 µM
same,MIC,Enterococcus,163 µM
